Results from ChEMBL document CHEMBL1144238, “Identification and SAR around N-{2-[4-(2,3-dihydro-benzo[1,4]dioxin-2-ylmethyl)-[1,4]diazepan-1-yl]-ethyl}-2-phenoxy-nicotinamide, a selective alpha2C adrenergic receptor antagonist” (Bioorg Med Chem Lett, 2008).

Legend:
[1] = biological target: T1, Alpha-2A adrenergic receptor (Homo sapiens, UniProt P08913); test: Antagonist activity at human recombinant adrenergic alpha2A receptor expressed in CHO cells assessed as inhibition of NE-induced calcium mobilization by FLIPR; format: functional, cell-based
T1 sequence (P08913 whole entry): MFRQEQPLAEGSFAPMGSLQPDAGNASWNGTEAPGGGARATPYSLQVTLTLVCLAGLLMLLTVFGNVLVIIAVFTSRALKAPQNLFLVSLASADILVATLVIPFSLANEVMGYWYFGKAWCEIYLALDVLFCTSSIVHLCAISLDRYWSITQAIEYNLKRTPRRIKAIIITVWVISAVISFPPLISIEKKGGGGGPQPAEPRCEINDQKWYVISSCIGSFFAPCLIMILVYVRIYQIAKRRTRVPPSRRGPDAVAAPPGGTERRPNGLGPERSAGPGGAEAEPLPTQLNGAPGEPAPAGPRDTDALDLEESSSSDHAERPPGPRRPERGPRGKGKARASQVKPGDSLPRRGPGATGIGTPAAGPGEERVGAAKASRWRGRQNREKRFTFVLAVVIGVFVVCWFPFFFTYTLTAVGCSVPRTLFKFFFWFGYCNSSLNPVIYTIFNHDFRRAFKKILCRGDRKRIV

[2] = organism: Homo sapiens; test: Selectivity for human recombinant adrenergic Alpha-2C receptor over human recombinant adrenergic alpha2B receptor by radioligand binding assay
[3] = organism: Homo sapiens; test: Selectivity for human recombinant adrenergic Alpha-2C receptor over human recombinant adrenergic alpha2A receptor by radioligand binding assay
[4] = biological target: T2, Alpha-2C adrenergic receptor (Homo sapiens, UniProt P18825); test: Antagonist activity at human recombinant adrenergic Alpha-2C receptor expressed in CHO cells assessed as inhibition of NE-induced calcium mobilization by FLIPR; format: functional, cell-based
T2 sequence (P18825 whole entry): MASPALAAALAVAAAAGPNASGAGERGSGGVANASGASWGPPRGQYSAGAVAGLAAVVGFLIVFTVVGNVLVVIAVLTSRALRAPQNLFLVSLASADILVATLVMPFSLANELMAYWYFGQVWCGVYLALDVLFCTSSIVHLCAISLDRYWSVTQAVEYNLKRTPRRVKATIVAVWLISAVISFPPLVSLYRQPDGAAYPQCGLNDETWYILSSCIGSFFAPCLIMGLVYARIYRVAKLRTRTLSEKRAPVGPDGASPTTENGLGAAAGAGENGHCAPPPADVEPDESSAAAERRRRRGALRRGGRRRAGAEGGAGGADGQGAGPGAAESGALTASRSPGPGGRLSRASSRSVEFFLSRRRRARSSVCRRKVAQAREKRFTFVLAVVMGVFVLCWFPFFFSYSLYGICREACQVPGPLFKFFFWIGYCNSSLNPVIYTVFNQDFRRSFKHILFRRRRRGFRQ

[5] = biological target: T3, Alpha-2B adrenergic receptor (Homo sapiens, UniProt P18089); test: Binding affinity at human recombinant adrenergic alpha2B receptor expressed in CHO cells by radioligand binding assay; format: cell-based
T3 sequence (P18089 whole entry): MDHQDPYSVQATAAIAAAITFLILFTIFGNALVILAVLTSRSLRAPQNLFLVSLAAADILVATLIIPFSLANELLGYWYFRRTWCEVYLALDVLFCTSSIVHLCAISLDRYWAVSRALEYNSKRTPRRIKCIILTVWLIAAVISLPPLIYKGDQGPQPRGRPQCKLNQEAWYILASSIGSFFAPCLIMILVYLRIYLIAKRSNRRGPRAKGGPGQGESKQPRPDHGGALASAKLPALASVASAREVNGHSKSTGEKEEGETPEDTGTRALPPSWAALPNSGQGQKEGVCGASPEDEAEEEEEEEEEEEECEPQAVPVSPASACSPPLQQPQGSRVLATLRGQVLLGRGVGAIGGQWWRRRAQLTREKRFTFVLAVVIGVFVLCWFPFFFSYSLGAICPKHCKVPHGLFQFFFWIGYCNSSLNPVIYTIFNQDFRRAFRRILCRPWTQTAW

[6] = biological target: T3, Alpha-2B adrenergic receptor; test: Antagonist activity at human recombinant adrenergic alpha2B receptor expressed in CHO cells assessed as inhibition of NE-induced calcium mobilization by FLIPR; format: functional, cell-based
[7] = biological target: T2, Alpha-2C adrenergic receptor; test: Binding affinity at human recombinant adrenergic Alpha-2C receptor expressed in CHO cells by radioligand binding assay; format: cell-based
[8] = biological target: T1, Alpha-2A adrenergic receptor; test: Binding affinity at human recombinant adrenergic alpha2A receptor expressed in CHO cells by radioligand binding assay; format: cell-based
[9] = organism: Homo sapiens; test: Selectivity human recombinant adrenergic Alpha-2C receptor over human recombinant adrenergic alpha2A receptor by FLIPR
[10] = organism: Homo sapiens; test: Selectivity human recombinant adrenergic Alpha-2C receptor over human recombinant adrenergic alpha2B receptor by FLIPR
[11] = system: Plasma; test: Drug level in Wistar Kyoto rat plasma at 3 mg/kg, sc; format: ADME, organism-based; parameters: dose 3 mg/kg, route subcutaneous; conditions: in vivo
[12] = biological target: Muscarinic acetylcholine receptor M1 (Homo sapiens) (UniProt P11229); test: Binding affinity to human muscarinic M1 receptor at 10 uM
[13] = system: Brain; test: Drug level in Wistar Kyoto rat brain at 10 mg/kg, sc; format: ADME, organism-based; parameters: dose 10 mg/kg, route subcutaneous; conditions: in vivo
[14] = system: Cerebrospinal fluid; test: Drug level in Wistar Kyoto rat cerebro spinal fluid at 10 mg/kg, sc; format: ADME, organism-based; parameters: dose 10 mg/kg, route subcutaneous; conditions: in vivo
[15] = system: Cerebrospinal fluid; test: Drug level in Wistar Kyoto rat cerebro spinal fluid at 30 mg/kg, sc; format: ADME, organism-based; parameters: dose 30 mg/kg, route subcutaneous; conditions: in vivo
[16] = biological target: Alpha-2C adrenergic receptor (Rattus norvegicus) (UniProt P22086); test: Binding affinity to rat adrenergic Alpha-2C receptor by radioligand binding assay
[17] = biological target: Alpha-2B adrenergic receptor (Rattus norvegicus) (UniProt P19328); test: Binding affinity to rat adrenergic alpha2B receptor by radioligand binding assay
[18] = biological target: Alpha-2A adrenergic receptor (Rattus norvegicus) (UniProt P22909); test: Binding affinity to rat adrenergic alpha2A receptor by radioligand binding assay
[19] = biological target: Histamine H1 receptor (Homo sapiens) (UniProt P35367); test: Binding affinity to human histamine H1 receptor 1 uM
[20] = biological target: 5-hydroxytryptamine receptor 7 (Homo sapiens) (UniProt P34969); test: Binding affinity to human 5HT7 receptor
[21] = biological target: 5-hydroxytryptamine receptor 2A (Homo sapiens) (UniProt P28223); test: Binding affinity to human 5HT2A receptor
[22] = system: Brain; test: Drug level in Wistar Kyoto rat brain at 30 mg/kg, sc; format: ADME, organism-based; parameters: dose 30 mg/kg, route subcutaneous; conditions: in vivo
[23] = biological target: 5-hydroxytryptamine receptor 2B (Homo sapiens) (UniProt P41595); test: Binding affinity to human 5HT2B receptor
[24] = biological target: D(4) dopamine receptor (Homo sapiens) (UniProt P21917); test: Binding affinity to human dopamine D4 receptor at 1 uM
[25] = biological target: Muscarinic acetylcholine receptor M2 (Homo sapiens) (UniProt P08172); test: Binding affinity to human muscarinic M2 receptor
[26] = system: Plasma; test: Drug level in Wistar Kyoto rat plasma at 30 mg/kg, sc; format: ADME, organism-based; parameters: dose 30 mg/kg, route subcutaneous; conditions: in vivo
[27] = biological target: Sodium-dependent serotonin transporter (Homo sapiens) (UniProt P31645); test: Binding affinity to human SERT
[28] = biological target: Alpha-1A adrenergic receptor (Homo sapiens) (UniProt P35348); test: Binding affinity to human adrenergic alpha1A receptor
[29] = system: Brain; test: Drug level in Wistar Kyoto rat brain at 3 mg/kg, sc; format: ADME, organism-based; parameters: dose 3 mg/kg, route subcutaneous; conditions: in vivo
[30] = biological target: Muscarinic acetylcholine receptor M3 (Homo sapiens) (UniProt P20309); test: Binding affinity to human muscarinic M3 receptor at 10 uM
[31] = biological target: 5-hydroxytryptamine receptor 1B (Homo sapiens) (UniProt P28222); test: Binding affinity to human 5HT1B receptor at 10 uM
[32] = system: Cerebrospinal fluid; test: Drug level in Wistar Kyoto rat cerebro spinal fluid at 3 mg/kg, sc; format: ADME, organism-based; parameters: dose 3 mg/kg, route subcutaneous; conditions: in vivo
[33] = biological target: Histamine H2 receptor (Homo sapiens) (UniProt P25021); test: Binding affinity to human histamine H2 receptor
[34] = biological target: D(3) dopamine receptor (Homo sapiens) (UniProt P35462); test: Binding affinity to human dopamine D3 receptor
[35] = biological target: Sodium-dependent noradrenaline transporter (Homo sapiens) (UniProt P23975); test: Binding affinity to human NET
[36] = biological target: Sodium-dependent dopamine transporter (Homo sapiens) (UniProt Q01959); test: Binding affinity to human DAT
[37] = biological target: D(2) dopamine receptor (Homo sapiens) (UniProt P14416); test: Binding affinity to human dopamine D2 receptor
[38] = biological target: 5-hydroxytryptamine receptor 1A (Homo sapiens) (UniProt P08908); test: Binding affinity to human 5HT1A receptor
[39] = system: Plasma; test: Drug level in Wistar Kyoto rat plasma at 10 mg/kg, sc; format: ADME, organism-based; parameters: dose 10 mg/kg, route subcutaneous; conditions: in vivo

5-hydroxytryptamine receptor 2B (Homo sapiens), sequence (P41595 whole entry): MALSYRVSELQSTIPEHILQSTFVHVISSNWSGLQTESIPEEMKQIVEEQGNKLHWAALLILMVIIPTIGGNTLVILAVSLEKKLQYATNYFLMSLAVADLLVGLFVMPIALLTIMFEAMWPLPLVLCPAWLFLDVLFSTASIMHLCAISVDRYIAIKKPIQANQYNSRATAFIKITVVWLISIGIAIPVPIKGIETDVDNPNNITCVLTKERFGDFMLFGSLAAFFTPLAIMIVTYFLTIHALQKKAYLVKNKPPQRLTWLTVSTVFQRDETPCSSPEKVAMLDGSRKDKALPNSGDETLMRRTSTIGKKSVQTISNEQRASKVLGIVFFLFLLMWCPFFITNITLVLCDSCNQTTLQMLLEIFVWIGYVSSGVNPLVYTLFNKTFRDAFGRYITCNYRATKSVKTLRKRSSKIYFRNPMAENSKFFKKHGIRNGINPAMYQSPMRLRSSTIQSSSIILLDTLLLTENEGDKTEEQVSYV
Sodium-dependent dopamine transporter (Homo sapiens), sequence (Q01959 whole entry): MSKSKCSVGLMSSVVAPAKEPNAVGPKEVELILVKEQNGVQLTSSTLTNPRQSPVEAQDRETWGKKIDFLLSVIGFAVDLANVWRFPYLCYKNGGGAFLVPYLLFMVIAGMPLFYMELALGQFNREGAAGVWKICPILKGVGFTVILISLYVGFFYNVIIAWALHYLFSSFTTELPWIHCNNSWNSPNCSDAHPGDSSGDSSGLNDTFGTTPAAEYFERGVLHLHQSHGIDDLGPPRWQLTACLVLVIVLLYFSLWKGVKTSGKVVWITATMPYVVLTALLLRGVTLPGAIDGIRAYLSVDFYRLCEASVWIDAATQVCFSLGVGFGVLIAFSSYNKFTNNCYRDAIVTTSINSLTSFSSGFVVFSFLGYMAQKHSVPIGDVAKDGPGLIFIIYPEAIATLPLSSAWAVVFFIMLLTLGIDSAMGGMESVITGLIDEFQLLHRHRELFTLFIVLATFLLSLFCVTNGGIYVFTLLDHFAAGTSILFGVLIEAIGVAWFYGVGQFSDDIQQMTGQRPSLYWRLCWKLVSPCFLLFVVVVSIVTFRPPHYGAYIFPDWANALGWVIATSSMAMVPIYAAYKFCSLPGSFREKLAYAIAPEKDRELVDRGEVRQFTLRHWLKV
Alpha-2C adrenergic receptor (Rattus norvegicus), sequence (P22086 whole entry): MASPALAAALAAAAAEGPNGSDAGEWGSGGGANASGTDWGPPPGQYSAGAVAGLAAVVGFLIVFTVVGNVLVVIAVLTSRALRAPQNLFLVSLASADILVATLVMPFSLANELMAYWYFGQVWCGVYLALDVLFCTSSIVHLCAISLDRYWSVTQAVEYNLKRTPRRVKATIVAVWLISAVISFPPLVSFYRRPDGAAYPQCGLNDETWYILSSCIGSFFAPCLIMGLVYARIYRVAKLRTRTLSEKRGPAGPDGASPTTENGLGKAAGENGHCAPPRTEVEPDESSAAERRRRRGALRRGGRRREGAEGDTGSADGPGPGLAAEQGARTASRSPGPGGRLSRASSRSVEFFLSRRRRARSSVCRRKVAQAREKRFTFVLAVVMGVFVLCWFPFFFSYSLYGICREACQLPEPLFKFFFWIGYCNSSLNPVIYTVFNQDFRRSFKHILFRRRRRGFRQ
Muscarinic acetylcholine receptor M2 (Homo sapiens), sequence (P08172 whole entry): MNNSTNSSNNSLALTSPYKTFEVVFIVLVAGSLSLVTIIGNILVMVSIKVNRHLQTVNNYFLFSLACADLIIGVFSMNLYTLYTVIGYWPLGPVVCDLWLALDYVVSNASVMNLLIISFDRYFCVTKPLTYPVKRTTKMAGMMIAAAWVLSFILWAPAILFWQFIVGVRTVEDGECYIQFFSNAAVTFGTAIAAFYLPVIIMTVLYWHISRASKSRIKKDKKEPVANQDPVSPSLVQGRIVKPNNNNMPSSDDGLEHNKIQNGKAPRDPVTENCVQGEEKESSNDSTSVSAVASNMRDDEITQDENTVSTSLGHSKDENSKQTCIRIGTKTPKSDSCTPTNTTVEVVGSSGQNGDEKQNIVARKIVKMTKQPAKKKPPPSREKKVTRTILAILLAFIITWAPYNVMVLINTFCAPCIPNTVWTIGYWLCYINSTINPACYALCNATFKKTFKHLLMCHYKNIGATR
5-hydroxytryptamine receptor 2A (Homo sapiens), sequence (P28223 whole entry): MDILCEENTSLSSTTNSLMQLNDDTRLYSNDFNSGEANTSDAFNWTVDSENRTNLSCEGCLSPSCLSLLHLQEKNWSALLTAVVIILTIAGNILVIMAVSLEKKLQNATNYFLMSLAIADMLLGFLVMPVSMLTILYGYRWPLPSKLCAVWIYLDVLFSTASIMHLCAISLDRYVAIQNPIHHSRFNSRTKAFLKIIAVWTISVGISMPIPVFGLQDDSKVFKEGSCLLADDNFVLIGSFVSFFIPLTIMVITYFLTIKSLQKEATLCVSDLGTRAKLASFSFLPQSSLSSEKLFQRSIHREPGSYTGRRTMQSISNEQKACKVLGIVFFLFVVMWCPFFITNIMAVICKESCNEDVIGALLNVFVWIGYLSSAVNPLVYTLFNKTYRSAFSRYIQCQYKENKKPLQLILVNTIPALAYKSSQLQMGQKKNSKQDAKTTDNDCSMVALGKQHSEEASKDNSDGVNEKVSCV
5-hydroxytryptamine receptor 7 (Homo sapiens), sequence (P34969 whole entry): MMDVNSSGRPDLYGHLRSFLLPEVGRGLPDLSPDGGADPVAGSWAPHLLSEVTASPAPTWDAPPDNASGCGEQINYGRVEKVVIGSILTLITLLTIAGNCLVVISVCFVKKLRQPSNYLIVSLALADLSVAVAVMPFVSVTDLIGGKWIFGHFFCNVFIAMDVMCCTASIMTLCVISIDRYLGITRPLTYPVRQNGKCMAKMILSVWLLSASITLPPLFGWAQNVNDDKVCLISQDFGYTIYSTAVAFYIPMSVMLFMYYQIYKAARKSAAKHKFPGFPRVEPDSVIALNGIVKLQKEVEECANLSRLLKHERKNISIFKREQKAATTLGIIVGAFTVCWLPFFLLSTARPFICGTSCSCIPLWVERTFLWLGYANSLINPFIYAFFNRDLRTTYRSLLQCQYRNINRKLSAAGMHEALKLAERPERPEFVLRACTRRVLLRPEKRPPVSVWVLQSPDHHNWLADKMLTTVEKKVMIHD
Sodium-dependent serotonin transporter (Homo sapiens), sequence (P31645 whole entry, looked up): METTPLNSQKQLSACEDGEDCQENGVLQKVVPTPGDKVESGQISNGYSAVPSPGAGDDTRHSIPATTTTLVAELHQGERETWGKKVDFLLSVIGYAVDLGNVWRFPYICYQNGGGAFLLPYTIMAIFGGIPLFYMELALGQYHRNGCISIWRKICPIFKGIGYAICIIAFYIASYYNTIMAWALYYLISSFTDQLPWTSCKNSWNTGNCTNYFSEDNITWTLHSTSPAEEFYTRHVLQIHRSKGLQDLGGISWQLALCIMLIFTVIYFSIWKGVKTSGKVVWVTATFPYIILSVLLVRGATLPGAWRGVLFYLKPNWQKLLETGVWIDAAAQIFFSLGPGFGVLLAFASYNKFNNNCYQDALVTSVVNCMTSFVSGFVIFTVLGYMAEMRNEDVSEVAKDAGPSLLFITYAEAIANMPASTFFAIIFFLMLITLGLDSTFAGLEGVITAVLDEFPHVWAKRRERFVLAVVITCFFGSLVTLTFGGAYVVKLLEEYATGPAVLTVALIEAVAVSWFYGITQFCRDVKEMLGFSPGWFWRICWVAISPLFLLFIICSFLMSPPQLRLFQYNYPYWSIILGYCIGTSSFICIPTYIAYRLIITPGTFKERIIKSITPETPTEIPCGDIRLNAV
D(4) dopamine receptor (Homo sapiens), sequence (P21917 whole entry): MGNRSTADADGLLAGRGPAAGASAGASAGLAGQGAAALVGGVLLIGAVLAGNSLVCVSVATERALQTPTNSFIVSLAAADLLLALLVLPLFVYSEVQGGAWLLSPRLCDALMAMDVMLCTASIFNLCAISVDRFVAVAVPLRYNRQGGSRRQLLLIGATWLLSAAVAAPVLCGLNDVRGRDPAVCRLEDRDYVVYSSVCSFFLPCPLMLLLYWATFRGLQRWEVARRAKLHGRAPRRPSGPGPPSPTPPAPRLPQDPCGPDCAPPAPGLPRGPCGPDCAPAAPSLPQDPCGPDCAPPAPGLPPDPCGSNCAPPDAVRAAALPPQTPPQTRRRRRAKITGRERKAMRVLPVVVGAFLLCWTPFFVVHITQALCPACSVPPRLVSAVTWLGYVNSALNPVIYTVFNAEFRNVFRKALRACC
D(3) dopamine receptor (Homo sapiens), sequence (P35462 whole entry): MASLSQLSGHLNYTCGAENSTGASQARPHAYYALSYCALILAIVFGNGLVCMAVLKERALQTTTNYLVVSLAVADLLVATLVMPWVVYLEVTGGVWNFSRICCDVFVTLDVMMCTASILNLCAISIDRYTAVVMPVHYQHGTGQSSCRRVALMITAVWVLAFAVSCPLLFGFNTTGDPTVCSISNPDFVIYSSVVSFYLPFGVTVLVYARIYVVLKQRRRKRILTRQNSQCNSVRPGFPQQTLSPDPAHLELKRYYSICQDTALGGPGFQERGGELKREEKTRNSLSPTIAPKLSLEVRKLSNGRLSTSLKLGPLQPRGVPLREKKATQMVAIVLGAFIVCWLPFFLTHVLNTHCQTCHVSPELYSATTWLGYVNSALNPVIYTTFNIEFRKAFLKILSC
5-hydroxytryptamine receptor 1B (Homo sapiens), sequence (P28222 whole entry): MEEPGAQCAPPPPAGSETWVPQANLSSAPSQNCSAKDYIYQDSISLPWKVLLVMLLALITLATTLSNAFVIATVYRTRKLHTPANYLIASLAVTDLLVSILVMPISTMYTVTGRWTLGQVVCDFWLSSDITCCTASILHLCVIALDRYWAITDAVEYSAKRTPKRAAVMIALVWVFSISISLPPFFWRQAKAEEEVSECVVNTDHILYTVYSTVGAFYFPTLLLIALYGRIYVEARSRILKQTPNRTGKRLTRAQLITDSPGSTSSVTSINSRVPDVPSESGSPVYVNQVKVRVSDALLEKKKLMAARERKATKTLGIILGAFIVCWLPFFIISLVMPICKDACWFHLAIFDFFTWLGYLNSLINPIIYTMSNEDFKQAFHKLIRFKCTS

COc1ccccc1N1CCN(CC2COc3ccccc3O2)CC1 (configuration not stated)
Ki [1]: 167 nM
Ratio Ki [2]: 6
Ratio Ki [3]: 15
Ki [4]: 23 nM
Ki [5]: 194 nM
Ki [6]: 17 nM
Ki [7]: 33 nM
Ki [8]: 506 nM
Ratio Ki [9]: 7
Ratio Ki [10]: 1

c1ccc(CN2CCN(CC3CCc4ccccc4O3)CC2)cc1 (configuration not stated)
Ki [1]: 167 nM
Ratio Ki [2]: 4
Ratio Ki [3]: 7
Ki [4]: 21.1 nM
Ki [5]: 72.8 nM
Ki [6]: 180 nM
Ki [7]: 19.6 nM
Ki [8]: 146 nM
Ratio Ki [9]: 8
Ratio Ki [10]: 9

O=C(NCCN1CCCN(C[C@H]2COc3ccccc3O2)CC1)c1cccnc1Oc1ccccc1
Cp [11]: 744 ng/mL
Activity [12]: 4%
Drug uptake [13]: 630 ngequiv/g
Drug uptake [14]: 26.9 ng/mL
Drug uptake [15]: 113 ng/mL
Activity [16]: 1.7 nM
Activity [17]: 7.6 nM
Activity [18]: 177 nM
Ki [1]: > 442 nM
Activity [19]: 33%
Activity [20]: 530 nM
Activity [21]: 2400 nM
Ratio Ki [2]: 16
Drug uptake [22]: 2230 ngequiv/g
Activity [23]: 690 nM
Activity [24]: 10%
Ratio Ki [3]: 106
Activity [25]: 1600 nM
Cp [26]: 6190 ng/mL
Activity [27]: 1480 nM
Ki [4]: 1.9 nM
Ki [5]: 14.3 nM
Activity [28]: 59 nM
Drug uptake [29]: 173 ngequiv/g
Activity [30]: 27%
Activity [31]: 44%
Drug uptake [32]: 7.39 ng/mL
Activity [33]: 1900 nM
Activity [34]: 75 nM
Activity [35]: 1790 nM
Activity [36]: 3.48 µM
Activity [37]: 820 nM
Ki [6]: 31.3 nM
Ki [7]: 0.9 nM
Activity [38]: 141 nM
Cp [39]: 2100 ng/mL
Ki [8]: 94.4 nM
Ratio Ki [9]: > 232
Ratio Ki [10]: 16

CC(C)(C)Nc1ncccc1C(=O)NCCN1CCCN(CC2COc3ccccc3O2)CC1 (configuration not stated)
Ki [1]: 366 nM
Ratio Ki [2]: 58
Ratio Ki [3]: 286
Ki [4]: 30.5 nM
Ki [5]: 28 nM
Ki [6]: 103 nM
Ki [7]: 0.5 nM
Ki [8]: 138 nM
Ratio Ki [9]: 12
Ratio Ki [10]: 3

O=C(NCCN1CCCN(C[C@@H]2COc3ccccc3O2)CC1)c1cccnc1Oc1ccccc1
Ratio Ki [2]: 12
Ratio Ki [3]: 53
Ki [7]: 9.2 nM

O=C(NCCN1CCCN(CC2COc3ccccc3O2)CC1)c1cccnc1Oc1ccccc1 (configuration not stated)
Ki [1]: 474 nM
Ratio Ki [2]: 10
Ratio Ki [3]: 44
Ki [4]: 25 nM
Ki [5]: 49 nM
Ki [6]: 132 nM
Ki [7]: 5 nM
Ki [8]: 220 nM
Ratio Ki [9]: 19
Ratio Ki [10]: 5

N#Cc1cccc(Oc2ncccc2C(=O)NCCN2CCCN(CC3COc4ccccc4O3)CC2)c1 (configuration not stated)
Ki [1]: 501 nM
Ratio Ki [2]: 48
Ratio Ki [3]: 275
Ki [4]: 1.9 nM
Ki [5]: 36 nM
Ki [6]: 27.5 nM
Ki [7]: 0.8 nM
Ki [8]: 208 nM
Ratio Ki [9]: 262
Ratio Ki [10]: 14
